Square brackets hold non-standard residues; d marks the D form. Ends that are not written are not given here. Dip = N[C@H](C(=O)O)C(c1ccccc1)c1ccccc1
Key:
[1] = tested on: B16F1 cells; assay: TEM electron microscopy of B16F1 cells; type: cell-based, murine; conditions: 108 μM
Procedure: B16F1 cells were seeded in 35 mm sterile tissue culture dishes at a density of 1×10^4 cells in a volume of 2 ml of culture media, and left to adhere and grow in a cell incubator at 37° C., >95% humidity and 5% CO2 conditions. When cultured cells reached an acceptable confluence (˜80-90%), they were incubated with the 4×IC50^4h value of LTX-401 (108 μM) for different time points (5, 15, 30 and 60 minutes) and subsequently fixed in a PHEM buffered (0.1 M) solution containing 0.05% malachite green oxalate (Sigma), 0.5% glutaraldehyde (GA, Electron Microscopy Sciences) and 4% formaldehyde (FA, Electron Microscopy Sciences). Malachite green is more frequently being used as an additive to primary fixation in order to reduce lipid extraction commonly associated with sample processing. Samples were immediately loaded and processed en bloc using the PELCO Biowave Pro Laboratory Microwave (Ted Pella, Inc.), a newly introduced method considered to be advantageous over conventional bench protocols, since it reduces sample preparation from days to hours. For all microwave steps, samples were microwaved at 23° C. with a 50° C. cut-out temperature. Both malachite green/GA/FA and osmium-reduced ferrocyanide (0.8% K3Fe (CN)6/1% OsO4) fixation steps were run in “power on/off” cycles of 2 minutes on, 2 minutes off (100 W), with vacuum.
Samples were rinsed four times with 0.1 M PHEM buffer between each step (two bench rinses and two final rinses for 40 seconds at 250 W) before being stained with 1% tannic acid (Electron Microscopy Sciences, PA, USA) and 1% aqueous uranyl acetate (Electron Microscopy Sciences, PA, USA) under “power on/off” cycles of 1 minute on, 1 minute off (150 W), with vacuum. Samples were rinsed as previously described between each staining procedure, in addition to being microwaved twice in water at 250 W (vacuum off). […]

[2] = tested on: B16F1 cells; assay: In vitro cytotoxicity, MTT assay (IC50 4h); type: cell-based, murine; conditions: B16F1, 4 h
From the text: JM1, a rat hepatocellular carcinoma, HEPG2 and BEL7402, both human hepatocellular carcinomas, were kindly provided by Dr. Pål-Dag Line, Director, Department of Transplantation Medicine, Oslo University Hospital. B16F1 (ATCC, CRL-6323), a murine skin malignant melanoma, MDA-MB-435S (HTB-129), a human malignant melanoma originating from a breast metastases, Malme-3M (HTB-64), a human malignant melanoma derived from a lung metastases, MRC-5 (ATCC, CCL-171), normal human lung fibroblasts, SK-N-AS (ATCC, CRL-2137), a human neuroblastoma cell line derived from a bone marrow metastases, HT-29 (ATCC, HTB-38), a human colorectal adenocarcinoma and HUV-EC-C (ATCC, CRL-1730), a human vascular endothelium cell line, were all purchased from the American Type Culture Collection (ATCC-LGC Standards, Rockville, MD, USA). HaCat, a human keratinocyte cell line, was kindly provided by Dr. Ingvild Pettersen, Department of Host Microbe Interactions, University of Tromsø. A375, a malignant melanoma cell line of human origin, was purchased from Public Health England (PHE Culture Conditions, Porton, Down, Salisbury, UK). JM1, A375, BEL7402, HEPG2 and B16F1 were all maintained in culture media consisting of DMEM (high glucose), while SK-N-AS, HT-29 and MDA-MB-435S were cultured in an RPMI-1640 medium containing 2 mM L-glutamine and sodium bicarbonate. […]

[3] = tested on: A375 cells; assay: Confocal imaging with Mitotracker (mitochondrial membrane potential); type: cell-based, human; conditions: short time after peptide treatment; data not shown
Procedure: Fixed cells, mitotracker—Cells were seeded as for live cell imaging, and treated with Mitotracker CMH2XROS (Invitrogen) at […] for 15 minutes prior to peptide treatment. Cells were treated with 17 μM LTX-315, with negative control serum-free RPMI only. After 60 min of incubation, cells were analyzed using a Zeiss microscope.

[4] = tested on: A375 cells; assay: Release of cytochrome-C (ELISA); type: cell-based, human; conditions: 35 μM
Procedure: A375 cells were seeded as with HMGB1 studies, and treated with 35 μM for different time points (5, 15, 45). Supernatants were collected and concentrated as with HMGB1 studies, and samples from the supernatants were analyzed using a 4.5 hour solid form Cytochrome C-Elisa kit (R&D Systems, USA, #DCTC0) following the manufacturer's description. Shortly thereafter, a 50% diluted sample was analyzed and the optical density was determined using a microplate reader set at 450 nm, and […]. A standard curve was generated for each set of samples assayed. Samples were run in four parallels, and the cytochrome-c released into the supernatant was expressed as a fold over the level of cytochrome-c in the supernatant of untreated cells.

| Compound | ultrastructural changes ([1]; 5 min) | ultrastructural changes ([1]; 60 minutes) | mode of cell killing ([1]; TEM) | IC50 [2] [µM] | Mitotracker mitochondrial signal [3] | cytochrome-C in the supernatant compared to untreated control cells [4] |
| --- | --- | --- | --- | --- | --- | --- |
| Cl.Cl.NCCNC(=O)C(CN)(CCCc1ccccc1)CCCc1ccccc1 [LTX-401] | lost their surface morphology | Large portions of cells were necrotic | kills by a lytic mode of action | 27 | – | – |
| K-K-W-W-K-K-W-Dip-K-NH2 (KKWWKKW[Dip]K-NH2) [LTX-315] | – | – | – | – | loss of mitochondrial signal | three times more |

From US20250002854A1, “METHODS OF GENERATING POPULATIONS OF TUMOUR-INFILTRATING T CELLS” (LYTIX BIOPHARMA AS, priority 2016, published 2025)
